Values of other authors in patent US20070166816A1, “Assay device that analyzes the absorption, metabolism, permeability and/or toxicity of a candidate compound” (Surface Logix, Inc., priority 2002, published 2007).

What was measured:
[1] = previously characterized in humans; qualitative grade
[2] = test system: Caco-2 cells; settings: previously characterized in Caco-2 assays; qualitative grade

SMILES	Absorbance in vivo [1]	Absorbance in vitro [2]
OC[C@@H](O)[C@@H](O)[C@H](O)[C@H](O)CO [Mannitol-reference, Mannitol]	Very low	Low
COc1ccc2cc([C@H](C)C(=O)O)ccc2c1 [Naproxein]	High	High
CC(C)NCC(O)COc1cccc2ccccc12 (stereo not drawn) [Propranolol--reference, Propranolol]	–	Moderate

Continued, values first:

Absorbance in vivo [1]	Absorbance in vitro [2]	SMILES
Low	Very High	O=c1[nH]cc(F)c(=O)[nH]1 [5-Fluorouracil]
–	Low	NS(=O)(=O)c1cc2c(cc1Cl)N=CNS2(=O)=O [Chlorothiazide]
Moderate	–	NS(=O)(=O)c1cc(C(=O)O)c(NCc2ccco2)cc1Cl [Furosemide]
